Test results taken from patent US12403121B2, “Anticancer rocaglamide derivatives” (priority 2018, dated 2025).

How the values were obtained:
in vivo = assay: in vivo; set-up: species or system mice; conditions: mouse
Protocol: Mice were administered with a 5 mg/kg dose of Roc by intravenous (IV) or intraperitoneal injection (IP) or by oral gavage (PO). Blood samples were collected before and at multiple indicated time-points after dosing (n=3). Plasma samples were obtained by centrifugation and stored at −80° C. To measure plasma concentrations of Roc, a sensitive liquid chromatography coupled with tandem mass spectrometry detection (LC/MS-MS) method was developed. The reference compounds Roc (NSC326408) and pipernyl rocaglate (NSC784086) were provided by the NCI Developmental Therapeutics Program with pipernyl rocaglate used as the internal standard for quantitation. Plasma samples were processed by taking 100 μl of plasma and adding 300 μl of methanol containing 0.05 μM of internal standard. The samples were vortexed and centrifuged at 10,000×g for 10 min. The supernatant was collected and evaporated to dryness. Dried samples were reconstituted in 100 μl of 1:1 water:acetonitrile and centrifuges at 10,000×g for 3 min, followed by injecting 10 μl into an HPLC. Compounds of interest were separated on a Kinetex EVO C18 column (150×2.1 mm) with a flow rate of 0.25 ml/min. Mobile phase consisted of 80% ammonium formate buffer (1 g/L) and 20% acetonitrile at the start of the run, and a linear gradient to 10% ammonium formate/90% acetonitrile was applied over 14 min. Roc and the internal standard were identified by MS/MS using a Thema) Vantage TSQ run in positive ion mode. The transitions used were m/z 506 to m/z 352 (Roc) and m/z 570 to m/z 450 (internal standard). […] Samples found to be above 2.5 μM of Roc were reanalyzed after dilution with blank plasma. Absolute recoveries of Roc from plasma were to be >98%. AUC estimations were made manually using the trapezoidal method of integration.
To examine the oral bioavailability, PK studies were conducted to compare mice that had been dosed with Roc at 5 mg/kg via the IV, IP, or PO route, followed by measuring Roc concentrations in blood samples collected at various times post dosing. Two separate studies with three mice at each time point for each route of dosing were conducted. […] Areas under the plasma concentration-time curves (AUC0-7h) produced 245 μM min of exposure in the IV route and 142 μM min of exposure in the PO route. The concentrations of Roc appeared to more slowly decline in the plasma over 24 h (T1/2=2.4 hour) with the PO route compared to those dosed by IV route (T1/2=˜1.5 hour).

Ewing sarcoma PDX = Ewing sarcoma PDX model (NCH-EWS-2); assay type: in vivo, NSG mouse; conditions: 3 mg/kg IP every other day, four weeks, vs vehicle
Source text: To generate PDX models, the Nationwide Children's Hospital Institutional Review Board approved the Human Subjects Protocol for the acquisition of surgically-removed tumor specimens from patients and informed patient consents were obtained. Shortly after resection, fresh tumor tissues with their histological types confirmed by a specialized pathologist were placed in Dulbecco's-modified Eagle (DME) medium (Invitrogen) and brought to the research laboratory. A piece of tumor fragment was implanted subcutaneously on the dorsal right flank area in an eight-to-ten week-old immunodeficient mouse under anesthesia. Tumors were allowed to grow until established, at which time the established PDX tumors were repeatedly passed from one animal to the next or cryopreserved. For Roc treatment, actively-growing PDXs for a Ewing sarcoma (NCH-EWS-2), an osteosarcoma (NCH—OS-7), and an alveolar rhabdomyosarcoma (NCH-ARMS-2) were excised and cut into 5-mm pieces. Each tumor piece was re-implanted into an NSG mouse and tumor growth was monitored. Once noted, the tumor sizes in the axial plane at its greatest dimension (L) and the orthogonal short dimension (S) were measured twice weekly using a Fowler Ultra-Cal Electronic Caliper. Approximated tumor volumes were calculated using the formula V=(L×S^2)/2. […]

COc1ccc([C@@]23Oc4cc(OC)cc(OC)c4[C@]2(O)[C@H](O)[C@H](C(=O)N(C)C)[C@H]3c2ccccc2)cc1 [Roc, rocaglamide]
Area under the plasma concentration-time curve (AUC0-7h) (in vivo; iv, 5 mg/kg): 245 µM·min | half-life (in vivo; iv, 5 mg/kg): ~1.5 h | improvement of oral bioavailability over silvestrol (in vivo; po): > 25 fold | Area under the plasma concentration-time curve (AUC0-7h) (in vivo; po, 5 mg/kg): 142 µM·min | Cmax (in vivo; po, 5 mg/kg): ~800 nM | T1/2 (in vivo; po, 5 mg/kg): 2.4 h | bioavailability (in vivo; po, 5 mg/kg): ~50% | tumor growth inhibition (Ewing sarcoma PDX): ~90%
